# In publication PMC10223284, “Category-Based Toxicokinetic Evaluations of Data-Poor Per- and Polyfluoroalkyl Substances (PFAS) using Gas Chromatography Coupled with Mass Spectrometry” (Toxics, 2023):
# Values joined by “and” are separate entries in the source; they are usually repeats but may differ in a detail not shown here. Identical values can stand only once. Like-named read-outs stand apart in the source and are kept apart here.
# Assays:
# [1] = Abiotic loss in negative controls of the hepatocyte clearance assay (cell-free media, metabolically inactivated hepatocytes); format: in vitro ADME; conditions: for Hep_Stab_Fail: flag for stability failure in hepatocyte clearance assay controls (1 or Fst = fail, 0 = pass); for HT BkgdCl, Half Life / HT BkgdCl, Slope: heat treated hepatocytes control; for HT BkgdCl, Half Life / HT BkgdCl, Slope / No Cells BkgdCl, Half Life / No Cells BkgdCl, Slope: 0 vs 240 min; for Negative Controls, Heat Treated (HT), concentration at 0 min / Negative Controls, Heat Treated (HT), concentration at 240 min: heat treated hepatocytes; for Negative Controls, Heat Treated (HT), concentration at 0 min / Negative Controls, Heat Treated (HT), concentration at 240 min / Negative Controls, No cells (NC), concentration at 0 min / Negative Controls, No cells (NC), concentration at 240 min: Rep 1-3; for No Cells BkgdCl, Half Life / No Cells BkgdCl, Slope: no cells control
# Summary of the method: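 Test compound at 1 μM incubated at 37 °C with shaking in complete William's medium E, either cell-free or with metabolically inactivated hepatocytes, then quenched with ice-cold acetonitrile for quantitative analysis.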
# [2] = In vitro-in vivo extrapolation (IVIVE) to Css and administered equivalent dose (AED); set-up: species or system human; conditions: for Clhep: IVIVE, hepatocyte Clint scaled to whole-liver clearance; for AED: administered equivalent dose from LOEC and Css; for Fub: fub=fup/(B:P), Fub set to 1 if needed; for CLint: scaled with HPGL 110 mill cells/g, Vl 1596 g
# Procedure: Using the experimentally generated PPB (fraction unbound in plasma, fup) and hepatic Clint data, IVIVE was performed as previously described to calculate human steady-state plasma concentrations (Css). Briefly, experimental measures of fup are adjusted using blood:plasma partitioning information to estimate the fraction unbound in blood (fub). Experimental hepatocyte Clint data are scaled up to represent whole-liver clearance (L/h). […] Once estimated, these Css values are considered in conjunction with published in vitro bioactivity concentrations (i.e., lowest-observed effective concentrations, or LOECs) to calculate AEDs (Table 2). See Table S10 for all relevant IVIVE inputs, scalars, calculations, and outputs.
# human primary cells = conditions: cited from earlier work
# human plasma [3] = assay: Chemical stability in plasma over the UC assay time course (T5hr/T1hr); conditions: for PPB_Stab_Fail: flag for stability failure in the plasma protein binding assay (1 = fail, 0 = pass); for Mean Stability: mean T5hr/T1hr ratio over all replicates and runs, plasma; for Stability (T5hr/ T1hr), replicates A, B, C: single replicate of one UC run
# human plasma [4] = assay: Ultracentrifugation (UC) plasma protein binding assay, fraction unbound in plasma (fup); conditions: for Fraction Unbound (fu), Run-specific Avg: average of one UC run (run date in line above); for Mean fu: fraction unbound in human plasma, some values based on eLOQ; for Mean fu / fup: ultracentrifugation; for fup: 10 μM, 37 °C; for Fraction Unbound (fu), replicates A, B, C: single replicate of one UC run (aqueous fraction / Time 5 hr)
# [5] = test system: pooled human cryopreserved primary hepatocyte suspensions; assay: Hepatic metabolic stability (hepatocyte clearance) assay, substrate depletion; format: in vitro ADME; conditions: for Bkgd-Sub Clearance (µL/min/106 hepatocytes): background-subtracted; for Concentration (nM), Time 0 min / Concentration (nM), Time 15 min / Concentration (nM), Time 30 min / Concentration (nM), Time 60 min / Concentration (nM), Time 120 min / Concentration (nM), Time 240 min: hepatocyte incubation, Rep 1-3, start conc 1000 nM; for Linear Regression Results, Best-Fit Values, Slope / Linear Regression Results, Best-Fit Values, Clearance / Linear Regression Results, Best-Fit Values, Half Life: hepatocyte time course; for Linear Regression Results, Best-Fit Values, Clearance / Linear Regression Results, Best-Fit Values, Half Life: NS = slope not significant
# From the text: William’s Medium E (Gibco A1217601), dexamethasone, and cell maintenance cocktail B (Gibco CM4000) were obtained from Thermo Fisher Scientific (Waltham, MA, USA). Hepatosure OptiThaw media (P/N K8000; Lot No. 18–1–0322) was obtained from Sekisui Xenotech (Kansas City, KS, USA). Trypan blue solution (P/N 1450021) was obtained from Bio-Rad (Hercules, CA, USA). Pooled human cryopreserved primary hepatocyte suspensions were obtained from BioIVT (Westbury, NY, USA) and produced using nontransplantable tissue. The human 50-donor pool (mixed gender; Cat X0080005; Lot MYC), selected from BioIVT’s commercially available, prepooled lots, was selected following review of vendor-generated metabolic characterization information. Pooled, mixed-sex human plasma from de-identified donors was obtained from a commercial vendor that operates a U.S. Food and Drug Administration-licensed and inspected donor center (BioIVT bioivt.com (accessed 12 May 2023). Donors comprised five males and five females and ranged from 20 to 50 years of age. Plasma collected using anticoagulant K2EDTA was sterile-filtered ([…]) and stored at <−70 °C until use.
# The hepatic metabolic stability assay measures the loss of a parent compound over time in a substrate-depletion approach. Briefly, hepatocyte suspensions, after a viability assessment, were diluted in complete William’s medium E (containing dexamethasone and cell maintenance cocktail B) prior to addition to 96-well polypropylene plates containing an equal volume of media spiked with the test compound (1 μM assay concentration; assay cell density = 50,000 cells/100 μL) and maintained at 37 °C with shaking. At each time point, relevant plates were crashed with an equal volume of ice-cold acetonitrile, centrifuged, and supernatant transferred to a new plate prior to storage at <−70 °C until quantitative analysis. Controls, run in parallel, included cell-free (i.e., media only) and metabolically inactivated hepatocytes to evaluate abiotic chemical stability in the aqueous media matrix with and without cellular protein. In preliminary runs, these controls were run at T0 and T240 only. If significant instability was noted, the hepatocyte clearance assay was rerun, including cell-free samples at each time point and metabolically inactivated hepatocytes at selected time points.
# To process samples for quantitative analysis, samples were thawed and mixed. An aliquot of sample was removed and diluted in acetonitrile (1 part sample plus 9 parts acetonitrile) containing the relevant ISs selected for the PFAS being analyzed (See Table S2). The target at instrument concentration of each IS was 10 pg/μL.
# The curves were generated using concentration/response ratios from the target analyte and IS, with either linear or quadratic regression models. The model and weighting, if necessary, were chosen to most accurately reflect the response of each compound and was evaluated by recalculating the individual calibration points using the curve. An acceptable model reflected an accuracy of ±30% of the theoretical value.
# Hepatic metabolic clearance data were plotted in semi-log format (ln concentration vs. time) with three replicates at each time point, as previously described. […] The equations described below are used to calculate the chemical half-life (T½) and intrinsic in vitro clearance (Clin vitro) with units of μL/(min × million hepatocytes). In Equation (3), 2000 is a scalar used to adjust the assay cell number up to be consistent with units of 1 million cells in the Clint equation.
# Negative controls, including media only and metabolically inactivated hepatocyte controls, were included to monitor abiotic loss (i.e., background clearance) during the assay. Where significant compound loss occurred using the analysis described above, background clearance rates were calculated and used to background-adjust hepatic metabolic clearance rates. […]
# [6] = Assuming 1 mg/kg/day dose rate, BW 70 kg
# [7] = human steady-state plasma concentration, assuming 1 mg/kg/day dosage
# [8] = BioSeek lowest-observed effect concentration used for AED
# [9] = minimum lowest-observed effect concentration, BioSeek platform
compound,measurement,setting,value
OCC(F)(F)C(F)(F)C(F)(F)CO [Hexafluoroamylene glycol],Hep_Stab_Fail,[1],0
same,"HT BkgdCl, Half Life",[1],329.06
same,"HT BkgdCl, Slope",[1],-0.002106
same,"Negative Controls, Heat Treated (HT), concentration at 0 min",[1],941.377 nM and 735.79 nM and 794.754 nM
same,"Negative Controls, Heat Treated (HT), concentration at 240 min",[1],487.17 nM and 595.696 nM and 416.449 nM
same,"No Cells BkgdCl, Half Life",[1],490.099
same,"No Cells BkgdCl, Slope",[1],-0.001414
same,"Negative Controls, No cells (NC), concentration at 0 min",[1],830.122 nM and 683.027 nM and 707.501 nM
same,"Negative Controls, No cells (NC), concentration at 240 min",[1],479.464 nM and 568.092 nM and 532.117 nM
same,Css,[2]; [6],0.44 mg/L and 2.07 uM
same,Clhep,[2],0.000 L/h
same,AED,[2],0.9667 mg/kg/day
same,Fub,[2],1
same,Css,[2]; [7],2.07 µM
same,Css,"[2]; human steady-state plasma concentration, assuming 1 mg/kg/day dosage, listed as hexafluoroamylene glycol",2.1 to 2.7 µM
same,CLint,[2],0 µL/min
same,LOEC,human primary cells; [8],2.00 µM
same,LOEC,human primary cells; [9],2 µM
same,PPB_Stab_Fail,human plasma [3],0
same,Mean Stability,human plasma [3],0.996
same,"Stability (T5hr/ T1hr), replicates A, B, C",human plasma [3],1.079 and 0.9916 and 0.917
same,"Fraction Unbound (fu), Run-specific Avg",human plasma [4],0.68
same,Mean fu,human plasma [4],0.6770
same,fup,human plasma [4]; human plasma,0.6770
same,fup,"human plasma [4]; human plasma, listed as hexafluoroamylene glycol",0.68
same,"Fraction Unbound (fu), replicates A, B, C",human plasma [4],0.6223 and 0.7422 and 0.6663
same,Bkgd-Sub Clearance (µL/min/106 hepatocytes),[5],0.00 µL/min/106 hepatocytes
same,"Concentration (nM), Time 0 min",[5],904.289 nM and 891.557 nM and 657.581 nM
same,"Concentration (nM), Time 15 min",[5],889.716 nM and 801.576 nM and 938.868 nM
same,"Concentration (nM), Time 30 min",[5],774.463 nM and 733.048 nM and 756.418 nM
same,"Concentration (nM), Time 60 min",[5],901.107 nM and 929.789 nM and 820.604 nM
same,"Concentration (nM), Time 120 min",[5],865.693 nM and 807.871 nM and 671.853 nM
same,"Concentration (nM), Time 240 min",[5],674.351 nM and 611.715 nM and 490.915 nM
same,"Linear Regression Results, Best-Fit Values, Slope",[5],-0.001398
same,"Linear Regression Results, Best-Fit Values, Clearance",[5],2.796
same,"Linear Regression Results, Best-Fit Values, Half Life",[5],495.708
same,clearance rate in hepatocytes,"[5]; human hepatocyte suspensions, values as rounded or worded in text",no clearance
"3-(Perfluoro-2-butyl) propane-1,2-diol",Hep_Stab_Fail,[1],0
same,"HT BkgdCl, Half Life",[1],285.42
same,"HT BkgdCl, Slope",[1],-0.002428
same,"Negative Controls, Heat Treated (HT), concentration at 0 min",[1],1083.95 nM and 2011.47 nM and 1037.82 nM
same,"Negative Controls, Heat Treated (HT), concentration at 240 min",[1],725.383 nM and 763.18 nM and 711.759 nM
same,"No Cells BkgdCl, Half Life",[1],506.95
same,"No Cells BkgdCl, Slope",[1],-0.001367
same,"Negative Controls, No cells (NC), concentration at 0 min",[1],1136.56 nM and 1061.97 nM
same,"Negative Controls, No cells (NC), concentration at 240 min",[1],792.448 nM and 800.439 nM and 781.338 nM
same,Css,[2]; [6],0.09 mg/L and 0.30 uM
same,Clhep,[2],28.460 L/h
same,AED,[2],6.5951 mg/kg/day
same,Fub,[2],0.672
same,Css,[2]; [7],0.30 µM
same,CLint,[2],1032293 µL/min
same,LOEC,human primary cells; [8],2.00 µM
same,LOEC,human primary cells; [9],2 µM
same,"Stability (T5hr/ T1hr), Run-specific Avg",human plasma [3]; average of one UC run (run date in line above),0.962
same,PPB_Stab_Fail,human plasma [3],0
same,Mean Stability,human plasma [3],0.965
same,Fstable.Med,"human plasma [3]; median fraction stable in plasma, UC assay Level4",0.232
same,"Stability (T5hr/ T1hr), replicates A, B, C",human plasma [3],0.883 and 0.994 and 1.018
same,"Fraction Unbound (fu), Run-specific Avg",human plasma [4],0.37
same,Mean fu,human plasma [4],0.3696
same,fup,human plasma [4]; human plasma,0.3696
same,Mean Fu,"human plasma [4]; mean fraction unbound over all replicates and runs, UC assay, human plasma",0.370
same,Fup.Med,"human plasma [4]; median fraction unbound in plasma, UC assay Level4",0.364
same,Fup.point,"human plasma [4]; point estimate of fraction unbound in plasma, UC assay Level4",0.37
same,"Fraction Unbound (fu), replicates A, B, C",human plasma [4],0.349 and 0.339 and 0.421
same,Clint.1.Med,"[5]; Bayesian analysis median, 1 μM assay concentration (Table S9)",4.6
same,Bkgd-Sub Clearance (µL/min/106 hepatocytes),[5],5.876 µL/min/106 hepatocytes
same,Unadj Clint,"[5]; hepatocyte clearance, Conc 1000 nM, not background adjusted",8.61
same,"Concentration (nM), Time 0 min",[5],880.591 nM and 1037.48 nM and 1054.86 nM
same,"Concentration (nM), Time 15 min",[5],858.26 nM and 1099.86 nM and 993.717 nM
same,"Concentration (nM), Time 30 min",[5],742.136 nM and 974.371 nM and 915.81 nM
same,"Concentration (nM), Time 60 min",[5],904.196 nM and 908.986 nM and 744.943 nM
same,"Concentration (nM), Time 120 min",[5],623.052 nM and 608.094 nM and 642.654 nM
same,"Concentration (nM), Time 240 min",[5],400.866 nM and 351.17 nM and 326.466 nM
same,"Linear Regression Results, Best-Fit Values, Slope",[5],-0.004305
same,"Linear Regression Results, Best-Fit Values, Clearance",[5],8.61
same,"Linear Regression Results, Best-Fit Values, Half Life",[5],160.976
same,In Vitro Clint,"[5]; pooled human hepatocyte suspensions, 1 μM",5.88 μL/min/10^6 cells
same,Unadj in vitro Clint,[5]; unadjusted hepatocyte intrinsic clearance,8.61
